In this assay the target is T1, NS3 protease (dengue virus type 1, UniProt A0A0K0TQ28).
T1 sequence (A0A0K0TQ28 whole entry): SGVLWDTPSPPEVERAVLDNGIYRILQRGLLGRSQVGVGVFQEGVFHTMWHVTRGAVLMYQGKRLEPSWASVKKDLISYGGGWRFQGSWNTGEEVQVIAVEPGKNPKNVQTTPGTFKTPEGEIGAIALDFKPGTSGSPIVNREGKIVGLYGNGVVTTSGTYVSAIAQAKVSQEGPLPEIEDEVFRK
The assay can be described thus: Functional biochemical assay to identify treatments for viral infectious disease that targets Dengue virus type 1 NS2B-NS3 protease. Utilizing a direct enzyme activity measurement method, reading the fluorescence intensity is used to characterize the relative potency of inhibitors as IC50. On the set-up: species or system Nauru/West Pac/1974.

By IC50 is commonly meant the concentration needed to halve the response being measured.

Molecules are shown by their SMILES.

As to `NCCc1csc2cc(C(=O)Nc3cc([C@H]4CCOC4)ccn3)ccc12`, the IC50 was over 99.5 µM. `O=C(Nc1ccc2c(c1)CNC2)c1ccc2[nH]cc(C3CCNCC3)c2c1` returned an IC50 of 31.2 µM. For the compound `N#Cc1ccc(-c2nc3c(C(=O)Nc4ccc5c(c4)CNC5)cc(F)cc3[nH]2)cc1`, half-maximal inhibition (IC50) was put at 1.68 µM.

Regarding `COc1cccc(-c2nc3c(C(=O)Nc4ccc5c(c4)CNC5)cc(F)cc3[nH]2)c1`, the IC50 worked out at 5.41 µM. Against the preceding compound, the IC50 is about 3.2-fold higher. Then `CC(C)c1nnc(-c2nc3c(C(=O)Nc4ccc5c(c4)CNC5)cc(F)cc3[nH]2)s1`, with 21.8 µM; and `NCc1cccc(-c2csc3cc(C(=O)Nc4ccc5c(c4)CNC5)ccc23)c1`, with 29.9 µM.

With `O=C(Nc1ccc2c(c1)CNC2)c1cc(F)cc2[nH]c(-c3cccc(F)c3)nc12`, the concentration for half-maximal inhibition (IC50) stood at 2.69 µM. Compared with the last compound, the IC50 is about 11-fold lower. Then `Cc1cccc(-c2nc3c(C(=O)Nc4ccc5c(c4)CNC5)cc(F)cc3[nH]2)c1`, with 5.92 µM; and `Cc1ccccc1-c1nc2c(C(=O)Nc3ccc4c(c3)CNC4)cc(F)cc2[nH]1`, with 2.19 µM. As for `O=C(Nc1ccc2c(c1)CNC2)c1ccc2c(C3=CCNCC3)csc2c1`, the IC50 amounted to 56.3 µM. In the case of `O=C(Nc1ccc2c(c1)CNC2)c1cc(F)cc2[nH]c(-c3ccccc3F)nc12`, the IC50 worked out at 3.86 µM. Compared with the last compound, the IC50 is about 15-fold lower. Then `NCc1ccc(-c2csc3cc(C(=O)Nc4ccc5c(c4)CNC5)ccc23)cc1`, with 31.7 µM.

Compound `NCc1csc2cc(C(=O)Nc3ccc4c(c3)CNC4)ccc12` came in with an IC50 of 9.99 µM.

The compound `O=C(Nc1ccc2c(c1)CNC2)c1cccc2c(C3CNC3)n[nH]c12` yielded an IC50 of 92.9 µM. Then `COc1cc(-c2cc(NC(=O)c3cc(F)cc4[nH]ncc34)cc3c2CNC3)ccn1`, with 82.8 µM.

`CC(C)(c1nc2c(C(=O)Nc3ccc4c(c3)CNC4)cc(F)cc2[nH]1)S(C)(=O)=O` displayed an IC50 of 16.1 µM.

On to `NCCc1csc2cc(C(=O)Nc3ccc4c(c3)CNC4)ccc12`, for which the IC50 was over 99.5 µM. With `O=C(Nc1cc2c(c(C3=CCS(=O)(=O)CC3)c1)CNC2)c1cc(F)cc2[nH]ncc12`, the IC50 is over 99.5 µM. `O=C(Nc1cc2c(c(C3=CCOCC3)c1)CNC2)c1cc(F)cc2[nH]ncc12`: the IC50 was found to be 39.9 µM. In other words, the double-digit micromolar range.
